Results as given in paper PMC7272617 (Scientific Reports, 2020).
Converted amounts (≈) assume the structure as drawn. Where a SMILES comes first, the peptide text is derived from it.

Key:
P. aeruginosa ATCC 27853 [1] = details: ATCC 27853, 24 h
[2] = tested on: MDR P. aeruginosa clinical isolate No.11; details: MDR clinical isolate No.11, 24 h
[3] = tested on: MDR P. aeruginosa clinical isolate No.4; details: MDR clinical isolate No.4, 24 h
P. aeruginosa ATCC 27853 [4] = experiment: Time-killing kinetics; assay type: cell-based, Pseudomonas aeruginosa
Description: The bacterial killing kinetics of PA-13 was assessed by evaluating the time course to kill suspensions of P. aeruginosa ATCC 27853 as described previously. […] Plates were incubated at 37 °C to determine the number of CFU after 24 h; the assays were performed in triplicate.

[5] = tested on: MDR P. aeruginosa clinical isolate No.10; details: MDR clinical isolate No.10, 24 h
P. aeruginosa ATCC 27853 [6] = experiment: Transmission electron microscopy (TEM); assay type: cell-based, Pseudomonas aeruginosa; details: 0.5 × MIC, 2 h; result in words
Description: The bacterial cells were treated and prepared with the same conditions as previously described in SEM[8]. The bacterial pellets were washed twice with PBS and post-fixed with 1% osmium tetroxide in PBS for 2 h, after overnight fixing with 2.5% glutaraldehyde. The fixed bacterial cells were washed twice with PBS, followed by dehydration for 15 min in a graded ethanol series (50%, 70%, 90%, and 100%). After placing in absolute acetone for 20 min, these samples were transferred to a mixture of absolute acetone and epoxy resin (1:1 and 1:3) for 1 h each, followed by transfer to pure epoxy resin and held overnight. Ultrathin sections were cut with a glass knife on an ultramicrotome, and post-stained with uranyl acetate and lead citrate. Specimens were observed using a transmission electron microscope (Hitachi HT7700, Japan).

LPS from E. coli O111:B4 = experiment: LPS binding, chromogenic limulus amebocyte lysate (LAL) assay; parameters: species or system Escherichia coli; details: 1 EU/mL LPS, 1 × to 32 × MIC, 37 °C, 30 min; result in words
Description: The ability of PA-13 to bind LPS was assessed using a quantitative, chromogenic limulus amebocyte lysate (LAL) according to the manufacturer’s instructions (Thermo Scientific). The LAL test is a sensitive indicator of the presence of free or non-neutralized endotoxin[30]. Stock solutions of peptide were prepared in endotoxin-free water provided with the kit. […] LAL reagent was added and incubated for 10 min at 37 °C, followed by addition of a colorless substrate and incubation for a further 6 min. The reaction was stopped with 25% (vol/vol) glacial acetic acid and the release of p-nitroaniline followed by absorbance at 405 nm. Endotoxin-free water served as a negative control (blank) and was considered 0% LPS binding. After blank subtraction, the percentage of LPS binding was calculated according to the following equation: %LPSbinding=(ODUntreated-ODTreated)/ODUntreated×100

[7] = tested on: MDR P. aeruginosa clinical isolate No.7; details: MDR clinical isolate No.7, 24 h

Work on `CC[C@H](C)[C@H](NC(=O)[C@H](CCCNC(=N)N)NC(=O)[C@H](CCCCN)NC(=O)[C@H](C)NC(=O)[C@@H](NC(=O)[C@@H](N)CCCCN)[C@@H](C)CC)C(=O)N[C@@H](Cc1c[nH]c2ccccc12)C(=O)N[C@@H](CCCCN)C(=O)N[C@H](C(=O)N[C@@H](CC(C)C)C(=O)N[C@@H](CCCNC(=N)N)C(=O)N[C@@H](CCCNC(=N)N)C(=O)N[C@@H](CCCNC(=N)N)C(N)=O)[C@@H](C)CC` [PA-13] (H-KIAKRIWKILRRR-NH2; N-terminus assumed) yielded an MBC (P. aeruginosa ATCC 27853 [1]) of 7.81 µg/mL (≈ 4.5 µM), an MIC [2] of 7.81 µg/mL (≈ 4.5 µM) and an MIC [3] of 7.81 µg/mL (≈ 4.5 µM). For the same compound, the “P. aeruginosa count within 30 min at MIC” value (P. aeruginosa ATCC 27853 [4]) was “approximately 10^4 CFU/ml”, the “time to complete killing (no regrowth)” value (P. aeruginosa ATCC 27853 [4]; at MBC) was at most 4 h and the “time to eradicate most bacteria” value (P. aeruginosa ATCC 27853 [4]; at MIC (and MBC)) was at most 2 h. The “regrowth after 24 h treatment” value (P. aeruginosa ATCC 27853 [4]; at MIC, result in words) was “regrowth was observed”, the “P. aeruginosa count within 30 min at MBC” value (P. aeruginosa ATCC 27853 [4]; start 10^7 CFU/ml, MBC (7.81 μg/ml), MHB, 37 °C) was ~10^2 CFU/ml and the MIC [5] was 7.81 µg/mL (≈ 4.5 µM). The “membrane integrity and intracellular alterations (TEM)” value (P. aeruginosa ATCC 27853 [6]) was “disrupted cell membrane with visible pores and leakage of cellular contents”, the LPS binding activity (LPS from E. coli O111:B4) was “dose-dependent LPS binding activity” and the MIC [7] was 7.81 µg/mL (≈ 4.5 µM).
